# Experimental data from paper PMC5070805 (Journal of medicinal chemistry, 2015).
# Where a SMILES comes first, the peptide text is derived from it. Bridges are numbered along the chain shown (N, C = ends). [ ]: non-standard residue; d: D form. Nle = CCCC[C@H](N)C(=O)O
# Key:
# hMC4R [1] = target: T1, hMC4R (Homo sapiens, UniProt P32245); test: Competition binding vs 125I-[Nle4,DPhe7]-α-MSH on whole HEK293 cells; details: text description
# hMC1R [2] = target: T2, hMC1R (Homo sapiens, UniProt Q01726); test: as above; details: text description
# hMC5R [3] = target: T3, hMC5R (Homo sapiens, UniProt P33032); test: as above; details: text description
# hMC3R [4] = target: T4, hMC3R (Homo sapiens, UniProt P41968); test: as above; details: text description
# hMC3R [5] = target: T4, hMC3R; test: Adenylate cyclase assay; assay type: cell-based; details: cAMP, text description
# hMC4R [6] = target: T1, hMC4R; test: Adenylate cyclase assay; assay type: cell-based; details: cAMP, text description
# hMC1R [7] = target: T2, hMC1R; test: Adenylate cyclase assay; assay type: cell-based; details: cAMP, text description
# hMC5R [8] = target: T3, hMC5R; test: Adenylate cyclase assay; assay type: cell-based; details: cAMP, text description
# T1 sequence (P32245 whole entry): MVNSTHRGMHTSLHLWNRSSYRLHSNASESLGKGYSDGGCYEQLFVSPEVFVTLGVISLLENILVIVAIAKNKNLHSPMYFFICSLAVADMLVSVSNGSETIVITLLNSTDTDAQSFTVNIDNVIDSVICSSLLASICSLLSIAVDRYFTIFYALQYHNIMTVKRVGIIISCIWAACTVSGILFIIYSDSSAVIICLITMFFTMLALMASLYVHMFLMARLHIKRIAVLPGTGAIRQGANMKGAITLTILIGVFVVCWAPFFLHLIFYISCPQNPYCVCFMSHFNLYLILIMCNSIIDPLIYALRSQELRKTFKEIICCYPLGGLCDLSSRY
# T2 sequence (Q01726 whole entry): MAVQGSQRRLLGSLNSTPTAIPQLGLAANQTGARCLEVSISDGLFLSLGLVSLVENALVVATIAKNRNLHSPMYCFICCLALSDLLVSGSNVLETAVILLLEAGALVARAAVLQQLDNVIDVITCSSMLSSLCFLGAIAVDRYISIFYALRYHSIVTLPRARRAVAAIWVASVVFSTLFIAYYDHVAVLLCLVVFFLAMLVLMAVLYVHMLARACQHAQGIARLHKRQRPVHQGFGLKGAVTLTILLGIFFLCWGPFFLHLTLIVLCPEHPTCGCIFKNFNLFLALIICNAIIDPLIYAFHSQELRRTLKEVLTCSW
# T3 sequence (P33032 whole entry): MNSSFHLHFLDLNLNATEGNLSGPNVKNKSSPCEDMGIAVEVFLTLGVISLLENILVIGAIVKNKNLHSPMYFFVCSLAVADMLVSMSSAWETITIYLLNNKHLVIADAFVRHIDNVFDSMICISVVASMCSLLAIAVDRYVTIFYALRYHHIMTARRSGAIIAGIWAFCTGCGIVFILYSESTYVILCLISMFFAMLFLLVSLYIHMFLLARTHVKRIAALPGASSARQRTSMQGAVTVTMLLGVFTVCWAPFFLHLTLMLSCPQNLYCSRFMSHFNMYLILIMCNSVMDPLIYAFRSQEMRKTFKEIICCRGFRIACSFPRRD
# T4 sequence (P41968 whole entry): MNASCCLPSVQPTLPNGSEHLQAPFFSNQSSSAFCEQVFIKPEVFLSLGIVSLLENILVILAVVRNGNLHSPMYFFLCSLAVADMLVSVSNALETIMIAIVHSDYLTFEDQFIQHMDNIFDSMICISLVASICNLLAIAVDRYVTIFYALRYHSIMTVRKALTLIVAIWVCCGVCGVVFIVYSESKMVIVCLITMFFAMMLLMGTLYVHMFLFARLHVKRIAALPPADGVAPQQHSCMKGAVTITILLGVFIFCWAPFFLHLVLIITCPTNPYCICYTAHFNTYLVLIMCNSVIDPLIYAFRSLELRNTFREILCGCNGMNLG
SMILES,binding at hMC4R (in words) (hMC4R [1]),binding at hMC1R (in words) (hMC1R [2]),binding at hMC5R (in words) (hMC5R [3]),binding at hMC3R (in words) (hMC3R [4]),functional activity at hMC3R (in words) (hMC3R [5]),functional activity at hMC4R (in words) (hMC4R [6]),functional activity at hMC1R (in words) (hMC1R [7]),functional activity at hMC5R (in words) (hMC5R [8])
"CCCC[C@H](NC(C)=O)C(=O)N[C@H]1CC(=O)NCCCC[C@@H](C(N)=O)NC(=O)[C@H](Cc2c[nH]c3ccccc23)NC(=O)[C@H](CCCNC(=N)N)NC(=O)[C@@H](Cc2ccccc2)NC(=O)[C@@H]2CCCN2C(=O)[C@@H]2CCCN2C1=O [compound 1, Ac-Nle-c[D-P-P-DPhe-R-W-K]-NH2] (Ac-[Nle]DPP[dF]RWK-NH2; lactam 2-8)",low binding affinity,no appreciable binding,no appreciable binding,low binding affinity,undetectable activity,undetectable activity,low potency,undetectable activity
"CCCC[C@H](NC(C)=O)C(=O)N[C@H]1CC(=O)NCCCC[C@@H](C(N)=O)NC(=O)[C@H](Cc2c[nH]c3ccccc23)NC(=O)[C@H](CCCNC(=N)N)NC(=O)[C@@H](Cc2ccccc2)NC(=O)[C@@H]2CCCN2C(=O)[C@H](Cc2c[nH]c3ccccc23)NC1=O [compound 3, Ac-Nle-c[D-W-P-DPhe-R-W-K]-NH2]",no affinity,no affinity,no affinity,weak binding,no stimulation of cAMP accumulation,weak and moderate activation,weak and moderate activation,weak and moderate activation
